Measurements from patent US8858995B2, “Methods and compositions for controlled delivery of phytochemical agents” (priority 2008, dated 2014).
Several values for one entry are separate records, joined by “and”; a condition that tells them apart may be missing. Identical values can stand only once. Like-named read-outs stand apart in the source and are kept apart here.

Experiments:
[1] = system: B[a]P-induced DNA adducts
[2] = In vitro release of curcumin from device for cervical insertion; type: physicochemical; conditions: after approximately 5 days in release medium; 18 days release period
Description: The medium was replaced daily and the amount of curcumin released from the compositions per day was measured spectrophotometrically against a standard curve and expressed as micrograms per day.

[3] = In vitro release from coated (and extruded) polymeric implants; type: physicochemical; conditions: 37° C., no serum
Description: To formulate the “coated” polymeric implants, blank P-80 implants (1.4 mm dia) were then prepared by dissolving P-80:F68 (9:1) in dichloromethane, followed by evaporation of the solvent in a Petri dish under hood and extrusion of the molten polymer through a silastic tubing mold, similar to the methodologies described herein above. […] For coating, one end of the blank implant (2.5-3.5 cm) was inserted into a silastic tube plug (6 mm long, 1.4 mm dia) while the other end of the plug was attached with a pipet tip. Coatings were then added by dipping the blank implant into the solution with intermittent drying with cool air using a commercial hair dryer and placing them under hood. […] The assembly was placed under hood overnight to remove the residual DCM, implants were excised in 1 or 2 cm lengths and stored in amber vials under argon at -20° C. until used. The rate of in vitro release for the implants was subsequently measured. […] The vials were placed in a water bath (Julabo S W 23, Seelback, Germany) at 37° C. with constant agitation at 110 rpm. The medium was changed every 24 h.

DBP-DNA adducts = assay: Dibenzo[a,I]pyrene (DBP)-DNA adducts in lung (32P-postlabeling); type: in vivo, A/J mice; conditions: two 1.5 cm coated implants; DBP implant; 3 weeks
Description: To assess the coated implants (i.e., where the compositions were in the form of coatings), in vivo studies were also performed. […] All groups of animals were also treated with dibenzo[a,I]pyrene (DBP) via polymeric implants (1-cm, 1.4 mm dia, 5% DBP load) at the same time. Implants were grafted subcutaneously, and animal were euthanized after 3 weeks. […] In both cases, animals were euthanized by CO2 asphyxiation and selected tissues (lung, liver and brain) were collected and stored at −80° C. until processing. Implants were also recovered, dried under vacuum and stored in amber vials under argon at 4° C. until analysis.
To analyze the formation of DNA adducts, DNA was isolated from lung tissue (200 mg) by treatment of the isolated crude nuclei with RNases and proteinase K, followed by extractions with phenol, phenol:Sevag and Sevag. DNA was recovered by ethanol precipitation and its concentration was measured spectrophotometrically considering 1 A260 equals 50 μg DNA. DNA adducts were analyzed by nuclease P1-mediated ^32P-postlabeling/TLC assay and expressed as adducts per 10^9 nucleotides.

[4] = In vitro release of curcumin from PCL-121K:PEG-8K (65:35) implants; type: physicochemical
Description: Both solutions were then mixed together to prepare a homogenous solution of drug and polymers. The solvents were evaporated on a water bath maintained at 65° C. followed by overnight drying under vacuum at 65° C. to remove residual solvents to prepare an amorphous molecular dispersion of drug in polymer. The dried molten polymer was then extruded through silastic tubing mold (internal diameter 3.4 mm) attached to a syringe. After a few minutes, the cylindrical implants were removed from the tubing and excised into desired lengths (2.0 cm, 200 mg containing 40 mg drug) and stored at −20° C. under argon until used.
PBS was supplemented with BCS (10% v/v) to mimic extracellular fluid composition and to simulate the in vivo situation. Amber-colored vials (n=3) containing a 2-cm implant each were incubated at 37±0.5° C. in a reciprocating (150 rpm) shaker water bath (Julabo S W23, Seelbach, Germany), and the release medium was changed after every 24 h.

[5] = Plasma, liver and brain curcumin levels, implants versus diet (HPLC-fluorescence); type: in vivo, ACI rats; conditions: for plasma curcumin level: curcumin diet
Text: The in vivo cumulative release was studied in female Augustus Copenhagen Irish (ACI) rats following an approved protocol from an Institutional Animal Care and Use Committee (IACUC). […] All the animals were provided food and water ad libitum. Sham and curcumin implants were subcutaneously grafted at the back of the rats and were monitored for their diet intake and body weight. Animals were euthanized at different time intervals by asphyxiation to collect blood, liver, brain, local tissues and implants. All the tissues were snap frozen in liquid nitrogen and stored at −80° C. until further analysis.
Plasma pooled from all the animals (1.5 ml) was mixed with […] of 0.5 M sodium acetate to reduce the pH to 5. Plasma was then extracted three times with 3 ml ethyl acetate. Ethyl acetate extracts were pooled and dried under vacuum. The dried residue was reconstituted in 100 μl of acetonitrile, and one-half of the solution was analyzed by HPLC. Similarly, liver or brain tissue (approximately 500 mg) from each animal was homogenized in 3 ml PBS (pH 7.4) containing 200 μl sodium acetate (0.5 M). The homogenate was then extracted twice with two volumes of ethyl acetate. After evaporation of ethyl acetate under vacuum, the residue was reconstituted in 1 ml acetonitrile. The solution was filtered through 0.45 μm glass-microfiber filter and evaporated again under vacuum. The residue was finally reconstituted in 100 μl acetonitrile, and one-half of it was analyzed by HPLC using a Shimadzu liquid chromatography system equipped with LC-10ADVP pump, RF-10AXL fluorescence detector and a Shimadzu C18 column of 5 μm particles (250×4.6 mm). The three curcuminoids were separated by using acetonitrile and 1% citric acid (adjusted to pH 2.5) at a flow rate of 1 ml/min with a gradient elution in which acetonitrile concentration was increased from 0% to 30% in first 5 min, followed by an increase to 45% in next 5-20 min. Acetonitrile was then maintained at this ratio till 36 min. Curcuminoids were detected using 410 and 500 nm as excitation and emission maxima, respectively, in the fluorescence detector.

[6] = system: B[a]P-induced DNA adducts; remark: listed apart in the source
[7] = 1 cm PCL matrix with 20 mg curcumin, s.c., bolus B[a]P
[8] = dietary curcumin 400 ppm, bolus B[a]P
[9] = dietary curcumin 400 ppm, single i.p. B[a]P 50 mg/kg
[10] = female, ACI (Augustus Copenhagen Irish), rat, plasma, oral, 1000 ppm in diet
[11] = curcumin implants, B[a]P implant 1 cm, 10 mg, 30 days post B[a]P
[12] = curcumin implants, sustained low dose B[a]P, 30 days

COc1cc(/C=C/C(=O)CC(=O)/C=C/c2ccc(O)c(OC)c2)ccc1O [curcumin]
inhibition of B[a]P-induced DNA adducts, liver [1, 7]: 48%
inhibition of B[a]P-induced DNA adducts, lung [1, 7]: 17%
dose of curcumin delivered by the implant ([1]; bolus B[a]P study): approximately 80 μg/rat/day
DNA adduct level, liver [1, 8]: 74±110 adducts/10^9 nucleotides
DNA adduct level, lung [1, 8]: 65±53 adducts/10^9 nucleotides
inhibition of B[a]P-induced DNA adducts, liver [1, 9]: 83%
inhibition of B[a]P-induced DNA adducts, lung [1, 9]: 45%
amount of curcumin released per day from device [2]: decreased and approached lower steady-state levels
release in PBS alone [3]: essentially no release
lung DBP-DNA adduct levels (DBP-DNA adducts): virtually no effect
curcumin release after 1 week [4]: approximately 200 μg/day
curcumin release after 31 days [4]: approximately 120 μg/day
curcumin release on day 2 [4]: approximately 390 μg
cumulative release after 1 month ([4]; 40 mg per implant): approximately 15 % of total agent load
curcumin release on day 1 ([4]; 2-cm implant, 40 mg): approximately 570 μg
liver curcumin level ([5]; both routes (implants, diet), day 1): 25 to 30 ng
liver curcumin level ([5]; both routes, after 12 days): 10 to 15 ng
plasma curcumin level ([5]; 25 and 90 days): undetectable
plasma curcumin level ([5]; day 1): not observed
brain curcumin level ([5]; dietary administration 1000 ppm, all the time points): 2 to 3 ng/g
concentration at 1 day ([5]; female, ACI (Augustus Copenhagen Irish), rat, brain, subcutaneous, 2 2-cm curcumin implants, implant route, day 1): 30 ± 7.3 ng/g
Kp ([5]; female, ACI (Augustus Copenhagen Irish), rat, liver (against plasma), other: both routes (subcutaneous implants, diet), via both routes): 10 to 20
concentration at 4 day [5, 10]: 0.3 ng/mL and 0.815 nM
concentration at 12 days [5, 10]: 0.543 nM and 0.2 ng/mL
concentration at 3 months ([5]; female, ACI (Augustus Copenhagen Irish), rat, plasma, subcutaneous, 2 2-cm curcumin implants, implants, after 3 months): ~0.2 ng/mL and 0.543 nM
concentration at 1 day ([5]; female, ACI (Augustus Copenhagen Irish), rat, plasma, subcutaneous, 2 2-cm curcumin implants, implants, day 1): 9 nM
concentration at 4 day ([5]; female, ACI (Augustus Copenhagen Irish), rat, plasma, subcutaneous, 2 2-cm curcumin implants, implants, day 4): 1.4 ng/mL and 4 nM
concentration at 1 day ([5]; female, ACI (Augustus Copenhagen Irish), rat, subcutaneous, 2 2-cm curcumin implants, implants (two 2-cm), day 1, pooled plasma): 3.3 ng/mL
brain curcumin level ([5]; implant route, after 12 days, same levels after 90 days): around 7.26±2.45 ng/g tissue
curcumin concentration in brain tissue, implant route higher than diet ([5]; rat, in vivo): approximately 3.5 fold
plasma and liver concentrations observed in the in vivo study ([5]; rat, in vivo): 78 to 95 nM
B[a]P-induced DNA adducts in liver and lung versus sham implant ([6]; 1 cm matrix 20% w/w curcumin, B[a]P implant, 30 days): inhibited the B[a]P-induced DNA adducts in both the liver and lung
inhibition of adducts, liver [6, 11]: 83%
inhibition of adducts, lung [6, 11]: 65%
DNA adduct level, liver [6, 12]: 4±0.7 adducts/10^9 nucleotides
DNA adduct level, lung [6, 12]: 9±5 adducts/10^9 nucleotides
